What is called IC50 is the concentration that gives 50% inhibition.

For the experiment, the target named is T1, Recombinant human cathepsin A (Homo sapiens, UniProt P10619).
T1 construct: Recombinant human cathepsin A (residues 29-480, with a C-terminal 10-His tag); 10-His (C); purchased R&D Systems 1049-SE
T1 sequence (P10619 29-326 limits assumed): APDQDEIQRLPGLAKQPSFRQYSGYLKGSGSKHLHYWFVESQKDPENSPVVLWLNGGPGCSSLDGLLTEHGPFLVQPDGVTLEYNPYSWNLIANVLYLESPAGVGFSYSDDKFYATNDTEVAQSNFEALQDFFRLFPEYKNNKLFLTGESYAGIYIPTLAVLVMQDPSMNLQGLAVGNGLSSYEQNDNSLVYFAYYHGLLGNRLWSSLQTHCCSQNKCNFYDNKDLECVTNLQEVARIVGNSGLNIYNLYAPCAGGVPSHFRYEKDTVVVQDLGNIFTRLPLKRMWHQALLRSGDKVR
T1 sequence (P10619 327-480 limits assumed): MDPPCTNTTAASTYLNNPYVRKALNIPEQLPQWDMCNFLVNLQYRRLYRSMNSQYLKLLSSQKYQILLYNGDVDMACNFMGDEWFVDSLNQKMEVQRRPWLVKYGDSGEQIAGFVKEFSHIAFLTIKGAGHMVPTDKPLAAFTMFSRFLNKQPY
Nature of the experiment: Cathepsin A inhibitory activity. Format: biochemical. Particulars: activated recombinant human cathepsin A 833 ng/ml, Bodipy FL-labeled bradykinin 2 μM, pH 5.5, 15 min room temperature. How it is done:
a) Cathepsin a Inhibitory Activity
Briefly, cathepsin A was incubated at 10 μg/ml with cathepsin L at 1 μg/ml in activation buffer (25 mM 2-(morpholin-4-yl)-ethanesulfonic acid (MES), pH 6.0, containing 5 mM dithiothreitol (DTT)) for 15 min at 37° C.
The activated cathepsin A was diluted in assay buffer (25 mM MES, pH 5.5, containing 5 mM DTT) and mixed with the test compound (dissolved in assay buffer containing (v/v) 3% DMSO) or, in the control experiments, with the vehicle in a multiple assay plate. After incubation for 15 min at room temperature, as substrate then bradykinin carrying an N-terminal ®Bodipy FL (4,4-difluoro-5,7-dimethyl-4-bora-3a,4a-diaza-s-indacene-3-propionyl) label (JPT Peptide Technologies GmbH; dissolved in assay buffer) was added to the mixture. […] After incubation for 15 min at room temperature the reaction was stopped by the addition of stop buffer (130 mM 2-(4-(2-hydroxy-ethyl)-piperazin-1-yl)-ethanesulfonic acid, pH 7.4, containing (v/v) 0.013%® Triton X-100, 0.13% Coating Reagent 3 (Caliper Life Sciences), 6.5% DMSO and 20 μM ebelactone B (Sigma, # E0886)).
Uncleaved substrate and product were then separated by a microfluidic capillary electrophoresis on a LabChip® 3000 Drug Discovery System (12-Sipper-Chip; Caliper Life Sciences) and quantified by determination of the respective peak areas. Substrate turnover was calculated by dividing product peak area by the sum of substrate and product peak areas, and the enzyme activity and the inhibitory effect of the test compound thus quantified.
Consider `C[C@@](CC(=O)O)(NC(=O)c1noc(-c2ccccc2F)n1)c1ccccc1` [Example 14, (S)-3-{[5-(2-Fluoro-phenyl)-[1,2,4]oxadiazole-3-carbonyl]-amino}-3-phenyl-butyric acid], for which the IC50 came to 17.4 µM.

Regarding `O=C(O)C[C@H](NC(=O)c1noc(-c2cccc(F)c2F)n1)c1ccccc1` [Example 20, (S)-3-{[5-(2,3-Difluoro-phenyl)-[1,2,4]oxadiazole-3-carbonyl]-amino}-3-phenyl-propionic acid], the IC50 was found to be 7.35 µM.

As to `Cc1oc(-c2ccccc2F)nc1C(=O)N[C@@H](CC(=O)O)c1ccc(Cl)cc1` [Example 63, (S)-3-(4-Chloro-phenyl)-3-{[2-(2-fluoro-phenyl)-5-methyl-oxazole-4-carbonyl]-amino}-propionic acid], the half-inhibitory concentration (IC50) was 3.41 µM.

For the molecule `CCc1nc(C(=O)N[C@@H](CC(=O)O)c2ccccc2C)nn1-c1ccccc1Cl` [Example 70, (S)-3-{[1-(2-Chloro-phenyl)-5-ethyl-1H-[1,2,4]triazole-3-carbonyl]-amino}-3-o-tolyl-propionic acid], the IC50 was 0.166 µM.

For the molecule `O=C(O)C[C@H](NC(=O)c1noc(-c2ccccc2F)n1)c1cccc(F)c1` [Example 18, (S)-3-(3-Fluoro-phenyl)-3-{[5-(2-fluoro-phenyl)-[1,2,4]oxadiazole-3-carbonyl]-amino}-propionic acid], the half-inhibitory concentration (IC50) is > 10 µM.

Consider `Cc1ccc([C@H](CC(=O)O)NC(=O)c2nc(C)n(-c3ccccc3Cl)n2)cc1` [Example 55, (S)-3-{[1-(2-Chloro-phenyl)-5-methyl-1H-[1,2,4]triazole-3-carbonyl]-amino}-3-p-tolyl-propionic acid], for which the concentration for half-maximal inhibition (IC50) was 0.738 µM.

Regarding `O=C(O)C[C@H](NC(=O)c1nc(-c2ccccc2)oc1C(F)(F)F)c1ccccc1Cl` [Example 97, (S)-3-(2-Chloro-phenyl)-3-[(2-phenyl-5-trifluoromethyl-oxazole-4-carbonyl)-amino]-propionic acid], the concentration for half-maximal inhibition (IC50) amounted to 7.37 µM.

Consider `COc1ccc([C@H](CC(=O)O)NC(=O)c2nc(-c3ccccc3)oc2C)cc1` [Example 23, (S)-3-(4-Methoxy-phenyl)-3-[(5-methyl-2-phenyl-oxazole-4-carbonyl)-amino]-propionic acid], for which the IC50 was determined as 2.39 µM.

For `Cc1oc(-c2ccccc2)nc1C(=O)N[C@@H](CC(=O)O)c1ccc(Cl)cc1Cl` [Example 75, (S)-3-(2,4-Dichloro-phenyl)-3-[(5-methyl-2-phenyl-oxazole-4-carbonyl)-amino]-propionic acid], the IC50 was found to be 1.75 µM.

On to `O=C(O)C[C@H](NC(=O)c1nc(-c2ccccc2)oc1C(F)(F)F)c1cccc(F)c1` [Example 79, (S)-3-(3-Fluoro-phenyl)-3-[(2-phenyl-5-trifluoromethyl-oxazole-4-carbonyl)-amino]-propionic acid], for which the 50% inhibitory concentration (IC50) was > 10 µM.

In the case of `O=C(O)C[C@H](NC(=O)c1noc(-c2cccc(F)c2F)n1)c1ccc(F)cc1` [Example 44, (S)-3-{[5-(2,3-Difluoro-phenyl)-[1,2,4]oxadiazole-3-carbonyl]-amino}-3-(4-fluoro-phenyl)-propionic acid], the 50% inhibitory concentration (IC50) turned out to be 5.33 µM.

Turning to `O=C(N[C@@H](Cc1ccc(Cl)cc1)C(=O)O)c1noc(-c2cnccc2C(F)(F)F)n1` [Example 99, (S)-3-(4-Chloro-phenyl)-2-{[5-(4-trifluoromethyl-pyridin-3-yl)-[1,2,4]oxadiazole-3-carbonyl]-amino}-propionic acid], the IC50 is > 10 µM.

For the molecule `Cc1ccc([C@H](CC(=O)O)NC(=O)c2nc(C3CC3)n(-c3ccccc3Cl)n2)cc1` [Example 83, (S)-3-{[1-(2-Chloro-phenyl)-5-cyclopropyl-1H-[1,2,4]triazole-3-carbonyl]-amino}-3-p-tolyl-propionic acid], the IC50 is > 10 µM.

Turning to `C[C@@](CC(=O)O)(NC(=O)c1noc(-c2cccc(F)c2F)n1)c1ccccc1` [Example 40, (S)-3-{[5-(2,3-Difluoro-phenyl)-[1,2,4]oxadiazole-3-carbonyl]-amino}-3-phenyl-butyric acid], the IC50 turned out to be 1.94 µM.

Turning to `Cc1oc(-c2ccccc2F)nc1C(=O)N[C@@H](CC(=O)O)c1cccc(C(F)(F)F)c1` [Example 92, (S)-3-{[2-(2-Fluoro-phenyl)-5-methyl-oxazole-4-carbonyl]-amino}-3-(3-trifluoromethyl-phenyl)-propionic acid], the IC50 is 1.14 µM.

On to `COc1ccc([C@H](CC(=O)O)NC(=O)CCc2nc(-c3ccccc3F)no2)cc1` [Example 73, (S)-3-{3-[3-(2-Fluoro-phenyl)-[1,2,4]oxadiazol-5-yl]-propionylamino}-3-(4-methoxy-phenyl)-propionic acid], for which the 50% inhibitory concentration (IC50) is > 10 µM.

`Cc1ccc([C@H](CC(=O)O)NC(=O)c2noc(-c3cccc(F)c3F)n2)cc1` [Example 38, (S)-3-{[5-(2,3-Difluoro-phenyl)-[1,2,4]oxadiazole-3-carbonyl]-amino}-3-p-tolyl-propionic acid]: the IC50 was determined as 6 µM.

Take `CC(C)c1oc(-c2ccccc2)nc1C(=O)NC(CC(=O)O)Cc1ccccc1` (centres unmarked) [Example 45, 3-[(5-Isopropyl-2-phenyl-oxazole-4-carbonyl)-amino]-4-phenyl-butyric acid]: the IC50 stood at 8.88 µM.

`Cc1ccccc1[C@H](CC(=O)O)NC(=O)c1nc(-c2ccccc2)oc1C` [Example 5, (S)-3-[(5-Methyl-2-phenyl-oxazole-4-carbonyl)-amino]-3-o-tolyl-propionic acid]: the IC50 amounted to 0.251 µM.

On to `Cc1ccccc1[C@H](CC(=O)O)NC(=O)c1nc(-c2ccccc2F)oc1C` [Example 25, (S)-3-{[2-(2-Fluoro-phenyl)-5-methyl-oxazole-4-carbonyl]-amino}-3-o-tolyl-propionic acid], for which the concentration for half-maximal inhibition (IC50) amounted to 0.311 µM.

`Cc1ccccc1[C@H](CC(=O)O)NC(=O)c1nn(C)cc1NS(=O)(=O)Cc1ccccc1` [Example 117, (S)-3-[(1-Methyl-4-phenylmethanesulfonylamino-1H-pyrazole-3-carbonyl)-amino]-3-o-tolyl-propionic acid]: the IC50 is > 10 µM.

With `O=C(N[C@H](C(=O)O)C1CCCCC1)c1noc(-c2cnccc2C(F)(F)F)n1` [Example 54, (S)-Cyclohexyl-{[5-(4-trifluoromethyl-pyridin-3-yl)-[1,2,4]oxadiazole-3-carbonyl]-amino}-acetic acid], the 50% inhibitory concentration (IC50) was 16.7 µM.

On to `CCCc1nc(C(=O)N[C@@H](CC(=O)O)c2ccccc2C)nn1-c1ccccc1Cl` [Example 89, (S)-3-{[1-(2-Chloro-phenyl)-5-propyl-1H-[1,2,4]triazole-3-carbonyl]-amino}-3-o-tolyl-propionic acid], for which the IC50 came to 0.127 µM.

For `Cc1ccccc1[C@H](CC(=O)O)NC(=O)CCc1nc(-c2ccccc2F)no1` [Example 53, (S)-3-{3-[3-(2-Fluoro-phenyl)-[1,2,4]oxadiazol-5-yl]-propionylamino}-3-o-tolyl-propionic acid], the half-maximal inhibitory concentration (IC50) is > 10 µM.

As for `Cc1ccccc1[C@H](CC(=O)O)NC(=O)c1noc(-c2ccccc2F)n1` [Example 15, (S)-3-{[5-(2-Fluoro-phenyl)-[1,2,4]oxadiazole-3-carbonyl]-amino}-3-o-tolyl-propionic acid], the half-maximal inhibitory concentration (IC50) was 4.92 µM.

Turning to `Cc1ccc([C@H](CC(=O)O)NC(=O)c2noc(-c3ccccc3F)n2)cc1` [Example 12, (S)-3-{[5-(2-Fluoro-phenyl)-[1,2,4]oxadiazole-3-carbonyl]-amino}-3-p-tolyl-propionic acid], the IC50 is > 10 µM.

As for `O=C(O)CC(Cc1ccccc1)NC(=O)c1nc(-c2ccccc2)n(-c2ccccc2)n1` (centres unmarked) [Example 86, 3-[(1,5-Diphenyl-1H-[1,2,4]triazole-3-carbonyl)-amino]-4-phenyl-butyric acid], the IC50 came to 2.23 µM.

Regarding `O=C(O)C[C@@H](Cc1ccccc1)NC(=O)c1noc(-c2cccc(F)c2F)n1` [Example 41, (R)-3-{[5-(2,3-Difluoro-phenyl)-[1,2,4]oxadiazole-3-carbonyl]-amino}-4-phenyl-butyric acid], the IC50 was 13.4 µM.

In the case of `Cc1cccc([C@H](CC(=O)O)NC(=O)c2noc(-c3cccc(F)c3F)n2)c1` [Example 39, (S)-3-{[5-(2,3-Difluoro-phenyl)-[1,2,4]oxadiazole-3-carbonyl]-amino}-3-m-tolyl-propionic acid], the IC50 was 9.37 µM.
